Assay results: PMC10538940, “Evaluating Scalable Supervised Learning for Synthesize-on-Demand Chemical Libraries” (Journal of Chemical Information and Modeling, 2023)

Biological target: PriA-SSB (Klebsiella pneumoniae subsp. pneumoniae, UniProt A6TGC5)
Assay: PriA-SSB AlphaScreen (AS) dose-response screen of Enamine REAL compounds
Format: biochemical, Klebsiella pneumonia
Conditions: for Enamine Inactive (not confirmed as hit in full dose-response curves): eight concentrations 515.6 nm to 66 μm, includes some initial hits not confirmed
Protocol: We screened the MLPCN compound library using an AlphaScreen (AS) assay at a single concentration (33.3 μm) following the same protocol previously used to screen the LC1234 libraries.[27],[28] Briefly, library compounds and controls were dispensed from 10 mM DMSO stocks into white 1536-well plates with an Echo 550 acoustic liquid handler. Next, 3 μL of a master mix was added to each well using a Mantis liquid handler with a high-volume silicone chip to yield a final reaction mixture containing 10 mM HEPES-HCl (pH 7.5), 150 mM NaCl, 1 mM MgCl2, 10 mM dithiothreitol, 1 mg/mL bovine serum albumin, 0.01% Triton X-100, 0.1 μM Klebsiella pneumonia PriA (with N-terminal 6×His tag), 0.1 μM Biotinylated-SSBct (N-Biotin-Trp-Met-Asp-Phe-Asp-Asp-Asp-Ile-Pro-Phe-C), 5 μg/mL of both AS acceptor and donor beads, and 33.3 μm of compound. For positive and negative control wells, the compound was replaced with 25 μM SSBct peptide (N-Trp-Met-Asp-Phe-Asp-Asp-Asp-Ile-Pro-Phe-C) or 25 μM ΔFSSBct (N-Trp-Met-Asp-Phe-Asp-Asp-Asp-Ile-Pro-C), respectively. Plates were centrifuged briefly and rocked for an hour at room temperature. Then, the AS signal of each well was measured with a PheraStar plate reader using a 0.1 s settling time, a 0.3 s excitation, a 0.04 s delay, and a 0.6 s integration time. AS signals for each well were adjusted as previously described to reduce the impact of plate and edge effects.[28] We calculated a Z′ factor for each plate[61] and repeated plates with Z′ < 0.5. In addition, we calculated the % inhibition relative to the controls for each compound. We retested compounds with ≥35% inhibition that also passed PAINS filters[62],[63] with the same assay to confirm activity.
All 68 compounds were initially screened in four replicates at eight concentrations ranging from 515.6 nm to 66 μm. We defined compounds whose median % inhibition at 33 μm was at least 50%, the same threshold used for the AMS screen, as initial hits. We repeated the dose–response curve screens for two additional rounds of ten compounds each, expanding the range of concentrations tested to improve the quality of the curve fits (Appendix A.9). We defined confirmed hits as those with a dose–response curve in curve class[82] 1.2 or in curve class 2.2 with an IC50 95% upper confidence limit within the tested range of concentrations. We used the Collaborative Drug Discovery Vault software[83] to fit dose–response curves, calculate IC50 values and the 95% upper and lower confidence limits, and define curve classes. […]
A.9 Enamine REAL Dose-Response Curves
We generated three sets of dose-response curves: eight-point curves with four replicates for all 68 Enamine compounds, 16-point curves with eight replicates for 10 compounds, and another set of 16-point curves with six replicates for 10 compounds. The eight-point dose-response curves started with an initial concentration of 66 µm and progressively divided the concentration in half until reaching 515.6 nm. Both 16-point dose-response curves started with an initial concentration of 100 µm, then 66.7 µm, and then progressively divided the concentration in half until reaching 4.2 nm. All dose-response screens followed the same protocol used for the MLPCN library. The dose-response curve images are available in our […]
We generated the 16-point dose-response curves because we were unable to reliably estab-lish IC50 values for some compounds in the eight-point screen. The minimum concentrations tested were not low enough. When reporting IC50 values and bounds in Table 4 we used the screening data from the highest-quality dose-response curve. The second set of 16-point curves were the highest quality because they had 16 concentrations and were unaﬀected by any spatial plate eﬀects. The ﬁrst set of 16-point curves were the next highest quality because they also had 16 concentrations and the most replicates. However, some of the readings at the lowest concentration in these curves were skewed due to assay spatial eﬀects at the plate […]
edge. […]

Chain of PriA-SSB (A6TGC5 whole entry): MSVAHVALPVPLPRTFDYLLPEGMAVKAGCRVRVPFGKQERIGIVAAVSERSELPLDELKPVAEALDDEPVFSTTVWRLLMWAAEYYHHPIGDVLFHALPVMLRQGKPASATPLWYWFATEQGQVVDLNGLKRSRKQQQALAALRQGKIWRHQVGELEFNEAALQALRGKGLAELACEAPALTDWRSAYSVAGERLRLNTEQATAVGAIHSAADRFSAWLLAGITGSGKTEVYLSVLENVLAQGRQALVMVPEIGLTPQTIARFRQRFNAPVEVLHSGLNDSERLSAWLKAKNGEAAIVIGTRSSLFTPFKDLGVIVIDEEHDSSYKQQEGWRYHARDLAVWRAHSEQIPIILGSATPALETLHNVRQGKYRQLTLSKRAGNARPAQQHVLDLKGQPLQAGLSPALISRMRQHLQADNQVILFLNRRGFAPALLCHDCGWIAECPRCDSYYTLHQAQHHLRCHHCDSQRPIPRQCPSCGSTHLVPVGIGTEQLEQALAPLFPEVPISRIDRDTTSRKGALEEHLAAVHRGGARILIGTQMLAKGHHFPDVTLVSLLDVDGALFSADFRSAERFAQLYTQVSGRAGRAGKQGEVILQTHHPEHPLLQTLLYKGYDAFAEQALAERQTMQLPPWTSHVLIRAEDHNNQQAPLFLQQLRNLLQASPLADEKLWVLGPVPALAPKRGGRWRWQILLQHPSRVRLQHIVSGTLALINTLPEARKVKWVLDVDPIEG

| SMILES | Enamine Inactive (not confirmed as hit in full dose-response curves) | IC50 [µM] |
| --- | --- | --- |
| O=C(Cc1ccc(S(=O)(=O)N2CCOCC2)s1)Nc1nc(-c2ccccn2)cs1 [Z29467739] | Inactive | – |
| Cc1cccc2nc(CSc3cccc4cccnc34)cn12 [Z56788250] | Inactive | – |
| CCOC(=O)c1c(C)[nH]c(C(=O)CSc2cccc3cccnc23)c1C [Z71173293] | Inactive | – |
| Cc1ccc(-n2nc(C)cc2NC(=O)CSc2cccc3cccnc23)cc1 [Z71174619] | Inactive | – |
| O=C(CN1C(=O)COc2ccc([N+](=O)[O-])cc21)Nc1nc(-c2ccccn2)cs1 [Z109132782] | – | 12.4 |
| O=c1[nH]ncc(N/N=C/c2ccccn2)c1Cl [Z114886052] | Inactive | – |
| O=C(CSc1cccc2cccnc12)Nc1cccc(N2CCCC2=O)c1 [Z202503096] | Inactive | – |
| CCOC(=O)c1[nH]c(C)c(C(=O)CSc2cccc3cccnc23)c1C [Z225905608] | Inactive | – |
| c1cnc2c(Cn3ccnc3)cccc2c1 [Z241926076] | Inactive | – |
| O=C(O)CSc1ccc([N+](=O)[O-])c2cccnc12 [Z285779920] | Inactive | – |
| O=[N+]([O-])c1cc(Cl)cc(C=Nc2ccc(Cl)c3ncccc23)c1O [Z314947084] | Inactive | – |
| CC(C)N(C)S(=O)(=O)c1ccc(F)c(C(=O)Nc2nc(-c3ccccn3)cs2)c1 [Z339655406] | – | 6.8 |
| O=[N+]([O-])c1ncn(Cc2cccc3cccnc23)n1 [Z666250890] | Inactive | – |
| Fc1cccc2[nH]c(-c3ccccn3)nc12 [Z666485712] | Inactive | – |
| Clc1cccnc1NN=Cc1ccccn1 [Z734817070] | Inactive | – |
| c1cnc2c(SCCn3cncn3)cccc2c1 [Z1116571364] | Inactive | – |
| Nc1ncc(-c2ccccn2)cn1 [Z1255380138] | Inactive | – |
| Cc1n[nH]c(SCC(=O)Nc2nnc(-c3ccccn3)[nH]2)n1 [Z1313381195] | – | 15.5 |
| O=c1[nH]c(NN=Cc2ccccn2)nc2ccccc12 [Z1407899729] | Inactive | – |
| O=C(O)c1cc(C(=O)N2CCS(=O)(=O)CC2)ccn1 [Z1443864314] | Inactive | – |

| SMILES | Enamine Inactive (not confirmed as hit in full dose-response curves) | IC50 [µM] |
| --- | --- | --- |
| c1cncc(CSCc2cccc3cccnc23)c1 [Z2146195633] | Inactive | – |
| CCc1nc(C)c(CSc2cccc3cccnc23)o1 [Z2273856428] | Inactive | – |
| Cc1nn(C(C)C)cc1-c1ccc2cccnc2c1C [Z2618185084] | Inactive | – |
| CC(C)c1ncc(-c2cccc3cccnc23)n1C [Z2739840324] | Inactive | – |
| CC(C)(C)c1ncc(-c2cccc3cccnc23)o1 [Z2998111045] | Inactive | – |
| O=C(Nc1nc(-c2ccccn2)cs1)C1(C2CCCCO2)CCCO1 (stereo not drawn) [Z3075781550] | Inactive | – |
| Cc1cc(-c2ccccn2)n[nH]1 [Z3225506284] | Inactive | – |
| C1=C(c2cccc3cccnc23)CCNC1 [Z3238971184] | Inactive | – |
| c1ccc(-c2n[nH]c3ccccc23)nc1 [Z3242476057] | Inactive | – |
| c1ccc(-c2csc(NC3COC4(CCC4)C3)n2)nc1 (stereo not drawn) [Z3295148399] | Inactive | – |
| O=C1CC2(CCOC2)C(C(=O)Nc2nc(-c3ccccn3)cs2)CN1 (stereo not drawn) [Z3297024656] | – | 12.6 |
| c1ccc(-c2cnc3n2CCC3)nc1 [Z3347084877] | Inactive | – |
| CC1CC(Nc2nc(-c3ccccn3)nc3c2CCC3)CC(C)N1 (stereo not drawn) [Z3395547714] | – | 12.1 |
| c1cc2c(c(-c3cccc4cccnc34)c1)CNC2 [Z3484513235] | Inactive | – |
| OCCCN(CCO)c1ccc2ccc3cccnc3c2n1 [Z3557694708] | Inactive | – |
| CN(C)CCN(C)c1ccc2ccc3cccnc3c2n1 [Z3557781825] | Inactive | – |
| COC(C)COc1ccc2ccc3cccnc3c2n1 (stereo not drawn) [Z3634004206] | Inactive | – |
| CC1(C)CC(CSc2cccc3cccnc23)=NO1 [Z3638513333] | Inactive | – |
| Clc1ccc(CN2CCOCCOCC2)c2ncccc12 [Z3652859018] | Inactive | – |
